Data reported in US20260256871A1, “COMPOSITIONS AND METHODS FOR TREATMENT OF SUBJECTS SUFFERING FROM A SARS-COV-2 INFECTION” (priority 2022, published 2026).
“Also recorded” adds a separate entry of the source. Structures can show the parent of a compound that is named as a salt. Where two headings read alike, the source gives them in different places.

How the values were obtained:
SARS-CoV2 [1] = format: cell-based; conditions: for viral load: antioxidants NAC and SFN; for inhibition of SARS-CoV2 replication in HBECs (viral copy number): camostat basolateral
16HBE cells = assay: Cytotoxicity, CytoTox 96 LDH release assay; conditions: for cytotoxicity (LDH release) at maximum concentration used in antiviral assays: 72 h, camostat 125 μM, HA 0.7%, BAPTA-AM 10 uM, allopurinol 400 μM, NAC 100 mM, SFN 10 μM, ivacaftor, PAAG at maximum; for toxicity values (percent of maximum toxicity): Allopurinol 400 uM, NAC 50 mM, SFN 5 uM, 72 hours
cells = conditions: due to the very low pH; cited from earlier work
SARS-CoV2 [2] = assay: Protection against SARS-CoV2 in Vero cells; format: cell-based

Which “effect on SARS-CoV-2 replication” value (SARS-CoV2 [1]; ivacaftor basolateral, ≥10 μM, close to its maximum solubility) does the source give for CC(C)(C)c1cc(C(C)(C)C)c(NC(=O)c2c[nH]c3ccccc3c2=O)cc1O [Ivacaftor, ivacaftor] here?
Its value is “moderate effect”.

And the “cytotoxicity (LDH release) at maximum concentration used in antiviral assays” value (shortened to “cytotoxicity (LDH release)”) (16HBE cells)?
Its value is “showed cytotoxicity”.

Which results are given for CC(=O)N[C@@H](CS)C(=O)O [NAC, N-Acetyl-L-cysteine]?
viral load (SARS-CoV2 [1]): reduction in the viral load; cytotoxicity (LDH release) at maximum concentration used in antiviral assays (16HBE cells): neither allopurinol, NAC nor SFN showed cytotoxicity; toxicity values (percent of maximum toxicity) (16HBE cells): negative values of toxicity

With C[S+]([O-])CCCCN=C=S (stereo not shown) [SFN, sulforaphane] as the compound, how does the viral load (SARS-CoV2 [1]) read?
The viral load was “reduction in the viral load”.

And the “cytotoxicity (LDH release)” value (16HBE cells)?
Its value is “neither allopurinol, NAC nor SFN showed cytotoxicity”.

And the “toxicity values (percent of maximum toxicity)” value (16HBE cells)?
Its value is “negative values of toxicity”.

What does the source list for Oc1ncnc2[nH]ncc12 [allopurinol]?
protection of HBECs from SARS-CoV2 infection (replication) (SARS-CoV2 [1]; allopurinol 400 uM, xanthine oxidase inhibition): significantly protected; also recorded: significantly blocks SARS-CoV2 replication; cytotoxicity (LDH release) at maximum concentration used in antiviral assays (16HBE cells): neither allopurinol, NAC nor SFN showed cytotoxicity; toxicity values (percent of maximum toxicity) (16HBE cells): negative values of toxicity

With O=C1O[C@H]([C@@H](O)CO)C(O)=C1O [ascorbic acid] as the compound, how does the “cytotoxicity of component alone (without bicarbonate buffer)” value (cells) read?
Its value is “cytotoxic”.

For O=C([O-])O.[Na+] [bicarbonate alone, sodium bicarbonate], which “antiviral activity of ARINA-1 components” value (SARS-CoV2 [1]) is on record?
Its value is “did not show significant activity”.

For CN(C)C(=O)COC(=O)Cc1ccc(OC(=O)c2ccc(NC(=N)N)cc2)cc1 [camostat mesylate], which “inhibition of SARS-CoV2 replication in HBECs (viral copy number)” value (SARS-CoV2 [1]; vs DMSO vehicle, 72 h) is on record?
Its value is “dose-dependent manner”.

What about the “inhibition of SARS-CoV2 replication in HBECs (viral copy number)” value (SARS-CoV2 [1]; vs DMSO vehicle, 72 h, listed as Camostat) of the same compound?
Its value is “significantly inhibited”.

And the “inhibition of SARS-CoV2 infection” value (SARS-CoV2 [1]; camostat mesylate basolateral, concentrations higher than 16.62 μM, vs DMSO vehicle, 72 h)?
The value was roughly 100%.

And the “cytotoxicity (LDH release)” value (16HBE cells)?
The value was “not toxic”.

What about the “protection against SARS-CoV2” value (SARS-CoV2 [2]) of the same compound?
Its value is “partially protective”.

With N[C@@H](CCC(=O)N[C@@H](CS)C(=O)NCC(=O)O)C(=O)O [glutathione] as the compound, how does the “cytotoxicity of component alone (without bicarbonate buffer)” value (cells) read?
The value was “cytotoxic”.
